Laboratory results: patent publication US20230364254A1, “METHODS FOR TREATING CANCERS WITH ANTIBODY DRUG CONJUGATES (ADC) THAT BIND TO 191P4D12 PROTEINS” (priority 2020, published 2023)

Assays:
[1] = tested on: locally advanced or metastatic urothelial cancer; test: Phase 2 single-arm, open-label study of enfortumab vedotin 1.25 mg/kg IV on Days 1, 8, 15 of each 28-day cycle: efficacy (confirmed ORR, DOR, PFS per RECIST 1.1 by BICR; OS); assay type: in vivo, human; conditions: for ORR point estimates for all subgroups: ORR subgroup analysis
Description: This is a single-arm, open-label, multicenter trial designed to assess the efficacy and safety of enfortumab vedotin as a single agent in locally advanced or metastatic urothelial cancer patients who have previously received systemic therapy with a CPI. For the purpose of this study a CPI is defined as a programmed cell death protein 1 (PD-1) inhibitor or programmed death-ligand 1 (PD-L1) inhibitor (including, but not limited to: atezolizumab, pembrolizumab, durvalumab, avelumab, and nivolumab). Patients must either have received prior treatment with platinum-containing chemotherapy (Cohort 1) or received no prior treatment with platinum-containing or other chemotherapy and are ineligible for treatment with cisplatin at time of enrollment (Cohort 2).
Enfortumab vedotin at a dose of 1.25 mg/kg will be administered as an intravenous (IV) infusion over approximately 30 minutes on Days 1, 8, and 15 of each 28-day cycle. Patients will continue to receive study treatment until disease progression, unacceptable toxicity, investigator decision, consent withdrawal, start of a subsequent anticancer therapy, pregnancy, or study termination by the sponsor. After discontinuation of study treatment, patients will be followed every 8 weeks (1 week) for response assessments, ECOG performance status, and physical exams. After 1 year of on study, the frequency of follow-up exams including response assessments will be reduced to every 12 weeks (+1 week). Patients that have progressed or begun subsequent anticancer therapy will be contacted every 8 weeks (1 week) up to 1 year on study, and every 12 weeks (+1 week) thereafter to obtain information on subsequent anticancer therapy, and survival status until death, study closure, or withdrawal of consent, whichever occurs first. The study will be closed 5 years after enrollment of the last patient, or when no patients remain in long-term follow-up, whichever occurs first. Additionally, the sponsor may terminate the study at any time.
Measures of anticancer activity will be assessed by computed tomography (CT) scans with contrast approximately every 8 weeks (±1 week). After 1 year on study, response assessments will be reduced to every 12 weeks (±1 week). The schedule of response assessments should not be adjusted for dose delays/interruptions or other reasons for changes in the timing of a patient's study activities; timepoints for response assessments should be calculated from Cycle 1 Day 1 during treatment. For patients who cannot receive CT scans with contrast, other protocol-specified imaging methods may be used. Patients must be evaluated using the same imaging method throughout the study for efficacy assessments. CT scans with contrast at the minimum will include the chest, abdomen, and pelvis. Other regions should be scanned if the patient has known or suspected disease in that region. Responses (complete response (CR) or partial response (PR)) will be confirmed with repeat scans 4 weeks (+1 week window) after first documentation of response. The determination of antitumor activity will be based on confirmed objective response assessments as defined by RECIST Version 1.1.
Response and progression will be assessed by an independent review facility (IRF). The investigator will make treatment decisions based on site assessments of scans by RECIST.
The primary endpoint of this study is the confirmed ORR per IRF. The ORR is defined as the proportion of patients with confirmed CR or PR according to RECIST Version 1.1. The ORR per IRF and its exact 2-sided 95% confidence interval (CI) using the Clopper-Pearson method (Clopper et al., Biometrika (1934); 26(4): 404-413) will be calculated.
The primary efficacy endpoint of this study is ORR (confirmed CR or PR per Response Evaluation Criteria in Solid Tumors (RECIST) Version 1.1) as determined by blinded independent central review (BICR) by an independent review facility (IRF). […]

191P4D12 = target: T1, 191P4D12 (Homo sapiens, UniProt Q96NY8); test: Analytical and biological characterization studies: comparability of enfortumab vedotin and AGS-22M6E
T1 sequence (Q96NY8 32-510): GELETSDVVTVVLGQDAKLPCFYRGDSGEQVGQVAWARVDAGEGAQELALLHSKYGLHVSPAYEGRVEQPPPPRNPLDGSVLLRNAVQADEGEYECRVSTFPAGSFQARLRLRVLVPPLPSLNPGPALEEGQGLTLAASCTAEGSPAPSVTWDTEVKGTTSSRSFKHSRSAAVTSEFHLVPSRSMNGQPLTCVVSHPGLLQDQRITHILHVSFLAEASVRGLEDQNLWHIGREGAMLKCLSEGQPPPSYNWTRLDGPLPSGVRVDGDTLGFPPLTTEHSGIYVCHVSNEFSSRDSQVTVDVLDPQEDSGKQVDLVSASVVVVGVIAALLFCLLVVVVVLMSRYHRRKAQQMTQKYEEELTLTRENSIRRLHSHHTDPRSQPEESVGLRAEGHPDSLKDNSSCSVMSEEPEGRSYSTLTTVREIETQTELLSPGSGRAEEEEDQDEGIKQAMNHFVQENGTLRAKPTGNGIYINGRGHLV
Description: As described above and in U.S. Pat. No. 8,637,642, AGS-22M6E is an ADC derived from a murine hybridoma cell line. Enfortumab vedotin is a Chinese hamster ovary (CHO) cell line-derived equivalent of AGS-22M6E ADC and is an exemplary product used for human treatment. Enfortumab vedotin has the same amino acid sequence, linker and cytotoxic drug as AGS-22M6E. The comparability between enfortumab vedotin and AGS-22M6E was confirmed through extensive analytical and biological characterization studies, such as binding affinity to 191P4D12, in vitro cytotoxicity, and in vivo antitumor activity.

[2] = Cohort 2 (N = 89), BICR, additional 3 months follow-up
[3] = Cohort 2 (N = 89), BICR, primary analysis
[4] = Cohort 2, BICR, additional 3 months follow-up
[5] = Cohort 2, BICR, primary analysis
[6] = Cohort 2, Kaplan-Meier, additional 3 months follow-up
[7] = Cohort 2, additional 3 months follow-up

Substance: enfortumab vedotin: Nectin-4 directed ADC: fully human anti-nectin-4 IgG1 kappa antibody (AGS-22C3) conjugated to MMAE via protease-cleavable maleimidocaproyl valine-citrulline linker
- Best Overall Response: Complete Response (CR) [1, 2]: 20 (22.5) n (%)
- Best Overall Response: Not Evaluable (NE) [1, 2]: 8 (9.0) n (%)
- Best Overall Response: Partial Response (PR) [1, 2]: 25 (28.1) n (%)
- Best Overall Response: Progressive Disease (PD) [1, 2]: 19 (10.1) n (%)
- ORR (CR or PR) [1, 2]: 45 (50.6) n (%)
- Best Overall Response: Complete Response (CR) [1, 3]: 18 (20.2) n (%)
- Best Overall Response: Not Evaluable (NE) [1, 3]: 8 (9.0) n (%)
- Best Overall Response: Partial Response (PR) [1, 3]: 28 (31.5) n (%)
- Best Overall Response: Progressive Disease (PD) [1, 3]: 8 (9.0) n (%)
- ORR (CR or PR) [1, 3]: 46 (51.7) n (%)
- Number of responders (confirmed CR or PR) ([1]; Cohort 2 (N = 89), additional 3 months follow-up): 45
- 95% CI of confirmed ORR [1, 4]: 39.8-61.3%
- CR among treated patients [1, 4]: 22%
- confirmed ORR [1, 4]: 51%
- CR (complete response rate) [1, 5]: 20.2%
- ORR [1, 5]: 51.7%
- median DOR [1, 5]: 10.9 months
- median PFS [1, 5]: 5.8 months
- participants with reduction in tumor measurements [1, 5]: 88%
- responders with ongoing response (18 out of 46) [1, 5]: 39%
- % Responders without PD or death (95% CI) [1, 6]: 35.8 (14.49, 57.91) %
- % Responders without PD or death at 6 months (95% CI) [1, 6]: 67.9 (51.11, 79,95) %
- % Responders without PD or death at 12 months (95% CI) [1, 6]: 53.7 (35.51, 68.85) %
- Duration of response, 25th percentile [1, 6]: 5.8, − months
- Duration of response, Median (95% CI) [1, 6]: 13.8 (6.41, −) months
- ORR point estimates for all subgroups [1, 7]: more than 40%
- ORR point estimates for all subgroups ([1]; Cohort 2, primary analysis): more than 40%
- 95% CI of median PFS [1, 7]: 5.0(8.3) months
- median DOR [1, 7]: 13.8 months
- median PFS [1, 7]: 6.7 months
- median OS ([1]; Cohort 2, additional 3 months follow-up, median follow-up 16.0 months): 16.1 months
- ORR ([1]; Cohort 2, patients who did not respond to prior PD-1/PD-L1 inhibitors, additional 3 months follow-up): 46%
- ORR ([1]; Cohort 2, patients with liver metastasis, additional 3 months follow-up): 43%
- ORR ([1]; Cohort 2, patients with primary tumor sites in the upper tract, additional 3 months follow-up): 58%
- median OS ([1]; Cohort 2, primary analysis, median follow-up 13.4 months): 14.7 months
- comparability between enfortumab vedotin and AGS-22M6E (binding affinity to 191P4D12, in vitro cytotoxicity, in vivo antitumor activity) (191P4D12): confirmed
